Source: ChEMBL document CHEMBL1201861, “Genomics of Drug Sensitity in Cancer screening data, Wellcome Trust Sanger Institute”

Assays:
Assay in all cases: cells
Format in all cases: functional, cell-based, Homo sapiens
HDLM-2 = conditions: Homo sapiens, HDLM-2;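 note: cell viability assay measuring suppression of HDLM-2 proliferation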
Description: SANGER: Inhibition of human HDLM-2 cell growth in a cell viability assay.

SK-PN-DW = conditions: Homo sapiens, SK-PN-DW;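 note: growth inhibition measured with a viability assay on these cells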
Description: SANGER: Inhibition of human SK-PN-DW cell growth in a cell viability assay.

HC-1 = conditions: Homo sapiens, HC-1;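 note: growth inhibition of HC-1 cells measured by a cell viability assay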
Description: SANGER: Inhibition of human HC-1 cell growth in a cell viability assay.

SK-UT-1 = conditions: Homo sapiens, SK-UT-1;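 note: growth inhibition of SK-UT-1 cells, measured by a cell viability assay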
Description: SANGER: Inhibition of human SK-UT-1 cell growth in a cell viability assay.

DEL = conditions: Homo sapiens, DEL;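 note: growth inhibition of the human DEL cell line, read out with a cell viability assay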
Description: SANGER: Inhibition of human DEL cell growth in a cell viability assay.

KS-1 = conditions: Homo sapiens, KS-1;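 note: growth inhibition of KS-1 cells, read out with a cell viability assay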
Description: SANGER: Inhibition of human KS-1 cell growth in a cell viability assay.

NCI-H1395 = conditions: Homo sapiens, NCI-H1395;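 note: cell viability assay read-out quantifying reduced proliferation of human NCI-H1395 cells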
Description: SANGER: Inhibition of human NCI-H1395 cell growth in a cell viability assay.

LAMA-84 = conditions: Homo sapiens, LAMA-84;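 note: growth inhibition of LAMA-84 cells, read out with a cell viability assay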
Description: SANGER: Inhibition of human LAMA-84 cell growth in a cell viability assay.

697 = conditions: Homo sapiens
Description: SANGER: Inhibition of human 697 cell growth in a cell viability assay.

SF-126 = conditions: Homo sapiens, SF-126;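 note: growth inhibition of human SF126 cells, read out with a cell viability assay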
Description: SANGER: Inhibition of human SF126 cell growth in a cell viability assay.

TE-5 = conditions: Homo sapiens, TE-5;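 note: inhibition of cell growth, read out by a cell viability assay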
Description: SANGER: Inhibition of human TE-5 cell growth in a cell viability assay.

NKM-1 = conditions: Homo sapiens, NKM-1;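 note: growth inhibition of NKM-1 cells, read out with a cell viability assay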
Description: SANGER: Inhibition of human NKM-1 cell growth in a cell viability assay.

ES6 = conditions: Homo sapiens, ES6;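 note: growth inhibition of human ES6 cells, read out with a cell viability assay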
Description: SANGER: Inhibition of human ES6 cell growth in a cell viability assay.

ES7 = conditions: Homo sapiens, ES7;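 note: growth inhibition of cultured human ES7 cells, read out as cell viability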
Description: SANGER: Inhibition of human ES7 cell growth in a cell viability assay.

SBC-1 = conditions: Homo sapiens, SBC-1;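 note: cell viability assay measuring growth inhibition of the SBC-1 cell line, IC50 being the concentration that halves growth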
Description: SANGER: Inhibition of human SBC-1 cell growth in a cell viability assay.

NCI-H2126 = conditions: Homo sapiens, NCI-H2126;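 note: growth inhibition of the cancer cell line, determined with a cell viability readout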
Description: SANGER: Inhibition of human NCI-H2126 cell growth in a cell viability assay.

NB6 = conditions: Homo sapiens, NB6;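 note: growth inhibition of NB6 cells, read out by a cell viability assay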
Description: SANGER: Inhibition of human NB6 cell growth in a cell viability assay.

TGW = conditions: Homo sapiens, TGW;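 note: growth inhibition of human TGW cells, read out with a cell viability assay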
Description: SANGER: Inhibition of human TGW cell growth in a cell viability assay.

MN-60 = conditions: Homo sapiens, MN-60;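 note: growth inhibition of the MN-60 cell line, determined with a cell viability assay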
Description: SANGER: Inhibition of human MN-60 cell growth in a cell viability assay.

NB13 = conditions: Homo sapiens, NB13;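 note: cell viability readout measuring growth inhibition of human NB13 cells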
Description: SANGER: Inhibition of human NB13 cell growth in a cell viability assay.

A3-KAW = conditions: Homo sapiens, A3-KAW;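 note: growth inhibition of human A3-KAW cells, read out with a cell viability assay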
Description: SANGER: Inhibition of human A3-KAW cell growth in a cell viability assay.

HCE-4 = conditions: Homo sapiens, HCE-4;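 note: cell viability assay measuring inhibition of growth in the human HCE-4 cell line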
Description: SANGER: Inhibition of human HCE-4 cell growth in a cell viability assay.

EW-13 = conditions: Homo sapiens, EW-13;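 note: growth inhibition of EW-13 cells, read out with a cell viability assay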
Description: SANGER: Inhibition of human EW-13 cell growth in a cell viability assay.

LB2518-MEL = conditions: Homo sapiens, LB2518-MEL;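 note: growth inhibition of human LB2518-MEL cells, measured with a cell viability assay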
Description: SANGER: Inhibition of human LB2518-MEL cell growth in a cell viability assay.

COLO-800 = conditions: Homo sapiens, COLO-800;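 note: growth inhibition of COLO-800 cells, read out with a cell viability assay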
Description: SANGER: Inhibition of human COLO-800 cell growth in a cell viability assay.

SCH = conditions: Homo sapiens, SCH;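 note: growth inhibition of human SCH cells, read out in a cell viability assay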
Description: SANGER: Inhibition of human SCH cell growth in a cell viability assay.

A253 cell line = conditions: Homo sapiens, A253;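 note: growth inhibition of A253 cells, read out with a cell viability assay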
Description: SANGER: Inhibition of human A253 cell growth in a cell viability assay.

DOHH-2 = conditions: Homo sapiens, DOHH-2;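 note: growth inhibition of human DOHH-2 cells, read out with a cell viability assay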
Description: SANGER: Inhibition of human DOHH-2 cell growth in a cell viability assay.

ATN-1 = conditions: Homo sapiens, ATN-1;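 note: growth inhibition of human ATN-1 cells, read out with a cell viability assay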
Description: SANGER: Inhibition of human ATN-1 cell growth in a cell viability assay.

SJSA-1 = conditions: Homo sapiens, SJSA-1;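 note: growth inhibition of human SJSA-1 cells, read out through a cell viability measurement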
Description: SANGER: Inhibition of human SJSA-1 cell growth in a cell viability assay.

U-266 = conditions: Homo sapiens, U-266
Description: SANGER: Inhibition of human U-266 cell growth in a cell viability assay.

HCC2218 = conditions: Homo sapiens, HCC2218;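 note: cell viability assay read-out, with IC50 given as the concentration that inhibits growth of the cell line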
Description: SANGER: Inhibition of human HCC2218 cell growth in a cell viability assay.

K562 = conditions: Homo sapiens, K562
Description: SANGER: Inhibition of human K-562 cell growth in a cell viability assay.

COR-L88 = conditions: Homo sapiens, COR-L88;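 note: growth inhibition of COR-L88 cells, read out with a cell viability assay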
Description: SANGER: Inhibition of human COR-L88 cell growth in a cell viability assay.

LXF-289 cell line = conditions: Homo sapiens, LXF-289
Description: SANGER: Inhibition of human LXF-289 cell growth in a cell viability assay.

ES5 = conditions: Homo sapiens, ES5;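 note: growth inhibition of human ES5 cells, read out by a cell viability assay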
Description: SANGER: Inhibition of human ES5 cell growth in a cell viability assay.

TE-8 = conditions: Homo sapiens, TE-8;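 note: growth inhibition of TE-8 cells, measured with a cell viability readout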
Description: SANGER: Inhibition of human TE-8 cell growth in a cell viability assay.

RKO = conditions: Homo sapiens, RKO;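 note: growth inhibition of human RKO cells, read out with a cell viability assay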
Description: SANGER: Inhibition of human RKO cell growth in a cell viability assay.

MZ1-PC = conditions: Homo sapiens, MZ1-PC;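 note: cell viability assay measuring growth inhibition of human MZ1-PC cells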
Description: SANGER: Inhibition of human MZ1-PC cell growth in a cell viability assay.

NCI-H1299 = conditions: Homo sapiens, NCI-H1299;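 note: growth inhibition of human NCI-H1299 cells, read out by a cell viability assay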
Description: SANGER: Inhibition of human NCI-H1299 cell growth in a cell viability assay.

Lu-65 = conditions: Homo sapiens, Lu-65;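 note: growth inhibition of Lu-65 cancer cells, read out by a cell viability assay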
Description: SANGER: Inhibition of human LU-65 cell growth in a cell viability assay.

SK-N-DZ = conditions: Homo sapiens, SK-N-DZ;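 note: growth inhibition of the cancer cell line, read out through a viability assay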
Description: SANGER: Inhibition of human SK-N-DZ cell growth in a cell viability assay.

MLMA = conditions: Homo sapiens, MLMA;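 note: growth inhibition of MLMA cells (human), determined through a cell viability readout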
Description: SANGER: Inhibition of human MLMA cell growth in a cell viability assay.

EOL1 = conditions: Homo sapiens, EOL1;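 note: growth inhibition of EoL-1 cells, read out by a cell viability assay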
Description: SANGER: Inhibition of human EoL-1-cell cell growth in a cell viability assay.

TE-12 = conditions: Homo sapiens, TE-12;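 note: growth inhibition of TE-12 cells, read out by a cell viability assay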
Description: SANGER: Inhibition of human TE-12 cell growth in a cell viability assay.

NCI-H1092 = conditions: Homo sapiens, NCI-H1092;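 note: cell growth inhibition measured with a cell viability assay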
Description: SANGER: Inhibition of human NCI-H1092 cell growth in a cell viability assay.

LB831-BLC = conditions: Homo sapiens, LB831-BLC;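 note: growth inhibition of LB831-BLC cells, read out with a cell viability assay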
Description: SANGER: Inhibition of human LB831-BLC cell growth in a cell viability assay.

D-392MG = conditions: Homo sapiens, D-392MG
HL-60 = conditions: Homo sapiens, HL-60;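 note: growth inhibition of human HL-60 cells, read out with a cell viability assay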
Description: SANGER: Inhibition of human HL-60 cell growth in a cell viability assay.

Measured: IC50

N#Cc1c(O)c2c(-c3ccc(-c4ccccc4O)cc3)csc2[nH]c1=O
0.0956 µM: EOL1
0.725 µM: COR-L88
0.311 µM: TGW
0.0917 µM: A3-KAW
0.802 µM: SK-N-DZ
0.342 µM: HCC2218
0.245 µM: DOHH-2
0.405 µM: U-266
0.499 µM: ATN-1
0.228 µM: DEL
0.136 µM: HDLM-2
0.541 µM: NCI-H1092
0.52 µM: Lu-65
0.0831 µM: HC-1
0.346 µM: MN-60
0.234 µM: MLMA
0.308 µM: LAMA-84
0.0974 µM: HL-60
> 1.02 µM: all other assays above

Nc1ccn([C@@H]2O[C@H](CO)[C@@H](O)C2(F)F)c(=O)n1 [GEMCITABINE]
0.272 µM: MLMA
0.00331 µM: LXF-289 cell line
0.0645 µM: LB2518-MEL
0.304 µM: Lu-65
0.608 µM: U-266
0.0198 µM: ES7
> 1.02 µM: HDLM-2 | NCI-H1395 | NCI-H2126 | NB6 | MN-60 | SCH | HCC2218 | COR-L88 | ES5 | TE-12 | NCI-H1092
0.333 µM: K562
0.115 µM: LAMA-84
0.167 µM: KS-1
0.166 µM: SBC-1
0.102 µM: A253 cell line
1.02 µM: D-392MG
0.195 µM: SJSA-1
0.0406 µM: COLO-800
0.254 µM: MZ1-PC
0.0157 µM: HL-60
0.0382 µM: NB13
0.00705 µM: SF-126
0.008 µM: TE-8
0.00625 µM: 697
0.196 µM: DOHH-2
0.0866 µM: SK-N-DZ
0.2 µM: TGW
0.0419 µM: LB831-BLC
< 0.004 µM: all other assays above

Oc1ccc2ccccc2c1SSc1c(O)ccc2ccccc12
3.84 µM: NB6
9.64 µM: DEL
12.3 µM: ES5
4.23 µM: NB13
6.89 µM: KS-1
27.9 µM: SK-PN-DW
8.07 µM: HC-1
9.2 µM: SK-N-DZ
29.2 µM: MLMA
5.28 µM: RKO
8.85 µM: HL-60
4.2 µM: EW-13
> 32 µM: all other assays above

O=C(O)c1ccc(-c2c[nH]c3ncc(-c4ccccc4)cc23)cc1C1CCCC1 [GSK-650394]
11.8 µM: SK-UT-1
15.1 µM: SJSA-1
1.99 µM: TE-12
8.67 µM: ES6
7.59 µM: HCE-4
10.2 µM: LAMA-84
5.99 µM: NCI-H1299
11.3 µM: EOL1
4.12 µM: TE-8
2.77 µM: NKM-1
3.02 µM: EW-13
5.11 µM: DEL
8.8 µM: SF-126
14.2 µM: SK-PN-DW
1.58 µM: RKO
1.4 µM: LXF-289 cell line
> 16 µM: all other assays above

C=C(c1ccc(C(=O)O)cc1)c1cc2c(cc1C)C(C)(C)CCC2(C)C [BEXAROTENE]
3.34 µM: ATN-1
0.485 µM: EW-13
> 8 µM: all other assays above
